The record followed here is ChEMBL document CHEMBL1146642, “5-Alkyl-2-[(aryl and alkyloxylcarbonylmethyl)thio]-6-(1-naphthylmethyl) pyrimidin-4(3H)-ones as an unique HIV reverse transcriptase inhibitors of S-DABO series” (Bioorg Med Chem Lett, 2004).

Assay [1] relates to MT4. Nature of the assay: Concentration required to protect the cell against HIV-2 strain ROD viral cytopathogenicity by 50% in MT-4 cells. The class given is functional, cell-based, Human immunodeficiency virus 2. The settings on record: Homo sapiens.
Assay [2] deals with MT4. Put plainly: Cytotoxic concentration that reduces the MT-4 cell viability by 50%. In kind it is functional. The note with it: Homo sapiens.
Assay [3] deals with MT4. Nature of the assay: Concentration required to protect the cell against SO561945 viral cytopathogenicity by 50% in MT-4 cells. The class given is functional, cell-based. The note with it: Homo sapiens. Background: Damage to the host cells serves as the signal in cytopathic effect assays.
Assay [4] relates to MT4. Nature of the assay: Concentration required to protect the cell against HIV-2 strain ROD viral cytopathogenicity by 50% in MT-4 cells; NA denotes not active. The class given is functional, cell-based, Homo sapiens.

The IC50 is the concentration at which inhibition is half-maximal. A high value points to weaker potency in that assay. By CC50 is commonly meant the concentration giving 50% cytotoxicity. A low value points to greater toxicity to the cells. `CC(=O)CSc1nc(O)c(C)c(Cc2cccc3ccccc23)n1` yielded an IC50 in assay [1] not below 84.9 µM. In assay [2], this compound returned a CC50 of 85 µM.

As to `Cc1c(O)nc(SCC(=O)c2ccc(Cl)cc2)nc1Cc1cccc2ccccc12`, half-maximal inhibition in assay [1] (IC50) required 19.8 µM. The CC50 in assay [2] is not below 198 µM.

`CCc1c(O)nc(SCC(=O)c2ccc(F)cc2)nc1Cc1cccc2ccccc12` gave an IC50 in assay [1] of 16.3 µM. Moreover, the CC50 in assay [2] is not below 240 µM.

`COC(=O)CSc1nc(O)c(C(C)C)c(Cc2cccc3ccccc23)n1` gave an IC50 in assay [1] of more than 179 µM. Moreover, in assay [2], the CC50 is 179 µM.

In the case of `COc1ccc(C(=O)CSc2nc(O)c(C)c(Cc3cccc4ccccc34)n2)cc1`, in assay [1], the IC50 is not below 0.42 µM. The compound further came in with a CC50 in assay [2] of more than 290 µM.

On to `COC(=O)CSc1nc(O)c(C)c(Cc2cccc3ccccc23)n1`, for which the IC50 in assay [1] was not below 296 µM. This compound also displayed a CC50 in assay [2] not below 296 µM.

As for `Cc1ccc(C(=O)CSc2nc(O)c(C(C)C)c(Cc3cccc4ccccc34)n2)cc1`, the IC50 in assay [1] was not below 225 µM. The CC50 in assay [2] stood at 225 µM.

In the case of `COc1ccc(C(=O)CSc2nc(Cc3cccc4ccccc34)c(C(C)C)c(=O)[nH]2)cc1`, in assay [1], the IC50 was 13.4 µM. This compound displayed a CC50 in assay [2] not below 203 µM.

In turn, `CCc1c(O)nc(SCC(=O)c2ccc(Cl)cc2)nc1Cc1cccc2ccccc12` registered an IC50 in assay [1] not below 0.26 µM. Moreover, in assay [2], the CC50 was found to be 56 µM.

In turn, `CCOC(=O)CSc1nc(O)c(C)c(Cc2cccc3ccccc23)n1` showed an IC50 in assay [1] not below 293 µM. In addition, the CC50 in assay [2] was not below 287 µM.

The compound `Cc1ccc(C(=O)CSc2nc(O)c(C(C)C)c(Cc3cccc4ccccc34)n2)c(C)c1` yielded an IC50 in assay [1] of 4 µM. Further, in assay [2], half-maximal cytotoxicity (CC50) was put at 27 µM.

In the case of `CCc1c(O)nc(SCC(=O)OC)nc1Cc1cccc2ccccc12`, the IC50 in assay [1] was not below 196 µM. In addition, the CC50 in assay [2] was not below 196 µM.

Take `Cc1c(O)nc(SCC(=O)c2ccc(F)cc2)nc1Cc1cccc2ccccc12`: the IC50 in assay [1] was not below 275 µM. Also, the 50% cytotoxic concentration (CC50) in assay [2] was not below 275 µM.

Regarding `CC(C)c1c(O)nc(SCC(=O)c2ccc(Cl)cc2)nc1Cc1cccc2ccccc12`, in assay [1], the IC50 was more than 270 µM. In assay [2], this compound returned a CC50 of more than 270 µM.

Compound `CCOC(=O)CSc1nc(O)c(C(C)C)c(Cc2cccc3ccccc23)n1` registered an IC50 in assay [1] not below 41.1 µM. Moreover, the CC50 in assay [2] worked out at 175 µM.

Compound `CCc1c(O)nc(SCC(=O)c2ccc(C)cc2)nc1Cc1cccc2ccccc12` registered an IC50 in assay [1] not below 1.25 µM. The same compound displayed a CC50 in assay [2] of 6 µM.

Take `Cc1ccc(C(=O)CSc2nc(O)c(C)c(Cc3cccc4ccccc34)n2)cc1`: the IC50 in assay [1] is not below 13.6 µM; in assay [3], not below 251 µM. In assay [2], this compound came in with a CC50 not below 251 µM.

The compound `CC(=O)CSc1nc(O)c(C(C)C)c(Cc2cccc3ccccc23)n1` gave an IC50 in assay [1] of more than 43.1 µM. This compound also registered a CC50 in assay [2] of 43 µM.

Compound `CC(C)c1c(O)nc(SCC(=O)c2ccc(F)cc2)nc1Cc1cccc2ccccc12` displayed an IC50 in assay [1] not below 32.2 µM. In assay [2], this compound showed a CC50 of 186 µM.

In the case of `CC(C)c1c(O)nc(SCC(=O)c2ccccc2)nc1Cc1cccc2ccccc12`, the IC50 in assay [1] was 22 µM. The CC50 in assay [2] came out at 238 µM.

In turn, `CCc1c(O)nc(SCC(=O)c2ccc(OC)cc2)nc1Cc1cccc2ccccc12` returned an IC50 in assay [1] not below 18.9 µM. Besides, half-maximal cytotoxicity in assay [2] (CC50) was put at 178 µM.

As for `O=c1[nH]cnc2c1ncn2[C@H]1CC[C@@H](CO)O1` [DIDANOSINE], in assay [1], the IC50 is 2.71 µM. In assay [2], this compound returned a CC50 not below 529 µM.

On to `O=C1Nc2ccc(Cl)cc2[C@@](C#CC2CC2)(C(F)(F)F)O1` [EFAVIRENZ], for which, in assay [4], the IC50 result is listed as “Not Active”. This compound also returned a CC50 in assay [2] of 80 µM.

Consider `Cc1c(Sc2ccccc2)n(COCCO)c(=O)[nH]c1=O` [HEPT], for which the IC50 result in assay [4] was “Not Active”. For the same compound, half-maximal cytotoxicity in assay [2] (CC50) was put at 405 µM.

For the compound `Cc1ccnc2c1NC(=O)c1cccnc1N2C1CC1` [NEVIRAPINE], the IC50 entry in assay [4] is given as “Not Active”. The CC50 in assay [2] is more than 200 µM.
